From patent US20160243023A1, “Novel Skin Remodeling Strategy” (ELC MANAGEMENT LLC, priority 2015, published 2016)

Tests used:
[1] = test system: human dermal fibroblasts (HDFs); experiment: Glycated collagen phagocytosis by HDFs (Phagocytosis Index); type: cell-based; details: beads pre-treated overnight with methylglyoxal; 3 hours incubation with HDFs
Protocol: • 1. On day 1, HDFs were plated in 24 well plates. • 2. On day 2, HDFs, after reaching confluence, were maintained for 48 hours under starvation conditions. • 3. On day 4, HDFs were incubated for 3 hours with collagen-coated microspheres (2×10^6 beads) as control or with collagen-coated microspheres (2×10^6 beads) that had been pre-treated overnight with glycation inducer, methylglyoxal. HDFs were then washed with PBS to remove unbound and loosely bound beads. • 4. Cell viability was measured using Presto Blue reagent; phagocytosis was measured by the determination of the fluorescence reading of internalized beads, using the procedure described above in Example 1. Results, shown in FIG. 11, are expressed as Phagocytosis Index (i.e., the ratio of the phagocytosis fluorescent signal divided by the viability signal).

[2] = test system: human dermal fibroblasts (HDFs); experiment: TGFβ1-induced collagen synthesis in HDF after pretreatment with inducers of collagen phagocytosis (PIP EIA); type: cell-based; details: TGFβ1 used alone at 0.25 ng/ml, 72 hours
Protocol: • 1. On day 1, HDFs were plated in 96 well plates. • 2. On day 2, HDFs, after reaching confluence, were treated with medium (control) or with actives (test materials previously found by the inventors to be phagocytosis enhancers*; data not shown) under starvation conditions for 48 hours (step 1). • 3. On day 4, the actives were removed and the cells were treated with medium or with a collagen inducer, 0.25 ng/ml TGFβ1 in medium, for 72 hours (step 2). • 4. On day 7, medium was collected and analyzed for collagen release using a PIP EIA. The amount of PIP (pro-collagen ng/ml medium) is quantitated by measuring the absorbance using an EIA plate reader. Accurate sample concentrations of PIP can be determined by comparing the specific absorbances to a standard curve. Cell viability also was assessed using a standard 3-(4,5-dimethylthiazol-2-yl)-2,5-diphenyltetrazoliumbromide (MTT) assay. The assay involves the conversion of the water soluble MTT, a yellow tetrazole, to an insoluble purple formazan in living cells. The formazan is then solubilized and the concentration determined by measuring the absorbance at a wavelength of from about 500-600 nm using a spectrophotometer. […]

Row | Molecule | uptake by HDFs of pre-treated collagen-coated beads versus beads coated with unmodified collagen (Phagocytosis Index) [1] | increase in collagen synthesis compared with the non-treated control [2] [%]
1 | CC(=O)C=O [methylglyoxal] | substantially the same rate | 
2 | TGFβ1: Transforming Growth Factor Beta 1, collagen inducer |  | 30
